Reference: US20170215419A1, “ANTHRANILAMIDE SEED TREATMENT COMPOSITIONS AND METHODS OF USE” (priority 2014, published 2017)

Experiments:
[1] = test system: black cutworms; assay: Cutworm mortality and residual control, leaf feeding bioassay on leaves from treated corn seed (Table 3); type: in vivo, Agrotis ipsilon
Description: (§1) Efficacy of chlorantraniliprole against high pressure of black cutworms, and plant stand protection (15 DAP) was tested (FIG. 5). In addition, efficacy of chlorantraniliprole for healthier stand and longer seedling protection against black cutworms (9 DAI) was also tested (FIG. 6). See also Tables 3 and 4 for increased mortality rates of cutworms with chlorantraniliprole alone and in combination with other insecticides. Mortality of 3rd instar black cutworms, which were exposed to corn leaf samples in in-vivo leaf feeding bioassays, was recorded at specific evaluation dates. The leaf samples were collected from treated corn seed according to the treatment in Tables 3-4.
(§2) All treatments included a combination of fungicides (Fludioxonil, Mefenoxam, Azoxystrobin, Thiabendazole). Soil Texture was fine clay loam; insect species: Agrotis ipsilon; infestation: 2, 3rd instar larva/plant; Plot size: 6 rows×20 feet; Seeding rate: 39,000/acre; Experimental design: Randomized Complete Block (RCB); 9 trtms×4 rep.

[2] = test system: black cutworms; assay: Black cutworm mortality after 10 DAI, leaf feeding bioassay (Table 4); type: in vivo, Agrotis ipsilon
Description: as §1

[3] = test system: wireworm; assay: Corn yield, stand and runts on fields with wireworm pressure (Tables 5, 6); type: in vivo; conditions: for Yield bu/ac: 250 μg AI/seed
[4] = test system: wireworm; assay: Field efficacy against wireworm and impact on corn yield, vigor and stand (FIG. 1, 2); type: in vivo
Description: Efficacy of chlorantraniliprole against wireworm (30 DAP) and impact on corn yield were tested (FIG. 1) based on data from 4 Locations. Unless indicated otherwise in this Example or in any other Example herein, “BASE ST” included Fludioxonil, Mefenoxam, Azoxystrobin, Thiabendazole (fungicides), Thiamethoxam (insecticide) and biological amendments (B. subtilis, and B. simplex). The BASE ST may also include other fungicides.
Efficacy of chlorantraniliprole was also tested against high wireworm pressure locations for plant vigor and yield and stand protection (FIG. 2 A-B). “FST” indicates fungicide seed treatment.
The chlorantraniliprole was applied at a concentration of 0.25 mg ai/seed and other commercially available insecticides and/or fungicides were applied at the labeled rates. […] In an embodiment, the BASE ST included thiamethoxam at 250 μg AI/seed.

[5] = test system: white grub; assay: Efficacy against white grub and impact on corn yield (FIG. 3, 4); type: in vivo, Japanese Beetle larvae; conditions: added to BASE ST, compared to BASE ST alone
[6] = test system: black cutworms; assay: Field efficacy against high pressure of black cutworms, plant stand protection (FIG. 5, 6); type: in vivo, Agrotis ipsilon
Description: as §1, §2

[7] = test system: wireworms; assay: Growth chamber wireworm bioassay on treated corn seed (FIG. 9); type: in vivo, Melanotus spp.; conditions: 250 to 750 μg AI/seed; corn at V3-V4; vs untreated check
Description: In addition, the efficacy of corn seed treated with chlorantraniliprole to protect seeds and seedlings from soil pests such as wireworms was determined at a growth chamber. A total of 8 repetitions were conducted and the following evaluations were observed:
Evaluations: 1. Emergence; 2. Wireworm damaged plants; 4. Wireworm mortality; 5. Fresh plan weight
Bioassays were conducted in a growth chamber in using field-collected Melanotus spp. wireworms. […] weighted wireworms were individually placed into plastic pots containing filtered field-collected soil and one corn seed for a total of 48 wireworms in 8 pots for each treatment The containers were maintained at 20±2° C., 40 to 70% RH, and a photoperiod of 10:14 (L:D), and were watered daily.
The following seed treatment combinations were used and the results are shown in FIG. 9: Chlorantraniliprole at 250 to 750 μg AI/seed; thiamethoxam (IST) at 250 μg AI/seed; and clothianidin (+Bacillus firmus 1-1582) at 1250 μg AI/seed.

[8] = seed treatment 500 μg AI/seed (clothianidin 500)
[9] = Table 6, fields with constant wireworm pressure, N = 7
[10] = seed treatment 250 μg AI/seed, 3rd instar black cutworms on corn leaf samples
[11] = seed treatment 250 μg AI/seed, residual control
[12] = added to BASE ST, compared to FST alone, high wireworm pressure

For `CN/C(=N\[N+](=O)[O-])NCc1cnc(Cl)s1` [Clothianidin, reference compound], the “Mortality % 12 DAP” value [1, 8] was 97.92%, the “Mortality % 39 DAP” value [1, 8] was 25.00% and the Mortality % [2, 8] was 93.75%.
In the case of `CN1COCN(Cc2cnc(Cl)s2)/C1=N\[N+](=O)[O-]` [Thiamethoxam, reference compound], the Yield bu/ac [3, 9] was 173.3 bu/ac, the runts ([3]; seedling stage, wireworms, each active at 250 μg AI/seed) was 8.8% and the “Mortality % 12 DAP” value [1, 10] was 95.83%. The “Mortality % 39 DAP” value [1, 11] was 31.25% and the Mortality % ([2]; seed treatment 250 μg AI/seed) was 22.92%.
In the case of `CNC(=O)c1cc(Cl)cc(C)c1NC(=O)c1cc(Br)nn1-c1ncccc1Cl` [Chlorantraniliprole, 3-bromo-N-[4-chloro-2-methyl-6-[(methylamino)carbonyl]phenyl]-1-(3-chloro-2-pyridinyl)-1H-pyrazole-5-carboxamide], the corn yield ([4]; 0.25 mg ai/seed added to BASE ST, compared to BASE ST alone) was “yield increase”, the “wireworm count per 10 plants” value ([4]; 0.25 mg ai/seed added to BASE ST, compared to BASE ST alone, 30 DAP, 4 locations) was “significantly reduced” and the plant vigor [4, 12] was “significantly increased”. The stand protection [4, 12] was “protected stand”, the yield ([4]; added to BASE ST, compared to FST alone, high wireworm pressure (FIG. 2A)) was “increased significantly” and the grain yield [5] was “increased grain yield”. The “white grub count per 10 plants” value ([5]; 30 DAP, 3 locations) was “significantly reduced”, the “stand and seedling protection against black cutworms” value ([6]; 9 DAI (FIG. 6)) was “increased healthier stand and longer seedling protection” and the “reduction in plant mortality” value ([6]; compared to FST alone, black cutworm) was 62%. The “black cutworm damage to corn plants” value ([6]; high black cutworm pressure, 15 DAP) was “significantly reduced”, the Yield bu/ac ([3]; Table 5, fields with wireworm pressure) was 172.3 bu/ac and the Yield bu/ac [3, 9] was 164.3 bu/ac. The corn grain yield ([3]; locations with wireworm infestations, chlorantraniliprole 250 to 750 μg AI/seed alone or with thiamethoxam 250 μg AI/seed) was “increased corn grain yield”, the “Mortality % 12 DAP” value [1, 10] was 100.00% and the “Mortality % 39 DAP” value [1, 11] was 32.95%. The “Mortality % 12 DAP” value [1, 8] was 100.00%, the “Mortality % 39 DAP” value [1, 8] was 31.25% and the “Mortality % 12 DAP” value ([1]; seed treatment 750 μg AI/seed) was 100.00%. For the same molecule, the “Mortality % 39 DAP” value ([1]; seed treatment 750 μg AI/seed) was 21.11%, the fresh plant weight [7] was “significantly higher plant weight than the untreated check/control” and the Mortality % ([2]; seed treatment 250 μg AI/seed) was 100.00%. For the same molecule, the Mortality % [2, 8] was 100.00% and the Mortality % ([2]; seed treatment 750 μg AI/seed) was 100.00%.
